Laboratory results reported in patent US10179770B2, “Quinolines derivatives as novel anticancer agents” (GENOSCIENCE PHARMA, priority 2013, dated 2019).

How the values were obtained:
Assay in all cases: NCI-60 screen (SRB)
M14 = type: cell-based; conditions: M14 (Melanoma)
Method: (§1) The human tumor cell lines of the cancer screening panel are grown in RPMI 1640 medium containing 5% fetal bovine serum and 2 mM L-glutamine. For a typical screening experiment, cells are inoculated into 96 well microtiter plates in 100 μL at plating densities ranging from 5,000 to 40,000 cells/well depending on the doubling time of individual cell lines. After cell inoculation, the microtiter plates are incubated at 37° C., 5% CO2, 95% air and 100% relative humidity for 24 h prior to addition of experimental drugs.
(§2) After 24 h, two plates of each cell line are fixed in situ with TCA, to represent a measurement of the cell population for each cell line at the time of drug addition (Tz). Experimental drug is solubilized in dimethyl sulfoxide at 400-fold the desired final maximum test concentration and stored frozen prior to use. At the time of drug addition, an aliquot of frozen concentrate is thawed and diluted to twice the desired final maximum test concentration with complete medium containing 50 μg/ml gentamicin. Additional four, 10-fold or ½ log serial dilutions are made to provide a total of five drug concentrations plus control. Aliquots of 100 μl of these different drug dilutions are added to the appropriate microtiter wells already containing 100 μl of medium, resulting in the required final drug concentrations.
(§3) Following drug addition, the plates are incubated for an additional 48 h at 37° C., 5% CO2, 95% air, and 100% relative humidity. For adherent cells, the assay is terminated by the addition of cold TCA. Cells are fixed in situ by the gentle addition of 50 μl of cold 50% (w/v) TCA (final concentration, 10% TCA) and incubated for 60 minutes at 4° C. The supernatant is discarded, and the plates are washed five times with tap water and air dried. Sulforhodamine B (SRB) solution (100 μl) at 0.4% (w/v) in 1% acetic acid is added to each well, and plates are incubated for 10 minutes at room temperature. After staining, unbound dye is removed by washing five times with 1% acetic acid and the plates are air dried. Bound stain is subsequently solubilized with 10 mM trizma base, and the absorbance is read on an automated plate reader at a wavelength of 515 nm. For suspension cells, the methodology is the same except that the assay is terminated by fixing settled cells at the bottom of the wells by gently adding 50 μl of 80% TCA (final concentration, 16% TCA). Using the seven absorbance measurements [time zero, (Tz), control growth, (C), and test growth in the presence of drug at the five concentration levels (Ti)], the percentage growth is calculated at each of the drug concentrations levels.
(§4) Percentage growth inhibition is calculated as: [(Ti−Tz)/(C−Tz)]×100 for concentrations for which Ti>/=Tz (1) [(Ti−Tz)/Tz]×100 for concentrations for which Ti<Tz (2)
(§5) Growth inhibition of 50% (GI50) is calculated from [(Ti−Tz)/(C−Tz)]×100=50 (3)
(§6) which is the drug concentration resulting in a 50% reduction in the net protein increase (as measured by SRB staining) in control cells during the drug incubation.
(§7) The drug concentration resulting in total growth inhibition (TGI) is calculated from Ti=Tz (4)
(§8) The LC50 (concentration of drug resulting in a 50% reduction in the measured protein at the end of the drug treatment as compared to that at the beginning) indicating a net loss of cells following treatment is calculated from [(Ti−Tz)/Tz]×100=−50 (5)
(§9) Values are calculated for each of these three parameters if the level of activity is reached; however, if the effect is not reached or is exceeded, the value for that parameter is expressed as greater or less than the maximum or minimum concentration tested.

SF-268 = type: cell-based; conditions: SF-268 (CNS)
Method: as §1, §2, §3, §4, §5, §6, §7, §8, §9

MCF7 = type: cell-based; conditions: MCF7 (Breast)
Method: as §1, §2, §3, §4, §5, §6, §7, §8, §9

LOX IMVI = type: cell-based; conditions: LOX IMVI (Melanoma)
Method: as §1, §2, §3, §4, §5, §6, §7, §8, §9

OVCAR-5 = type: cell-based; conditions: OVCAR-5 (Ovarian)
Method: as §1, §2, §3, §4, §5, §6, §7, §8, §9

SK-MEL-28 = type: cell-based; conditions: SK-MEL-28 (Melanoma)
Method: as §1, §2, §3, §4, §5, §6, §7, §8, §9

BT-549 = type: cell-based; conditions: BT-549 (Breast)
Method: as §1, §2, §3, §4, §5, §6, §7, §8, §9

RXF393 = type: cell-based; conditions: RXF393 (Renal)
Method: as §1, §2, §3, §4, §5, §6, §7, §8, §9

UO-31 = type: cell-based; conditions: UO-31 (Renal)
Method: as §1, §2, §3, §4, §5, §6, §7, §8, §9

NCI/ADR-RES = type: cell-based; conditions: NCI/ADR-RES (Ovarian)
Method: as §1, §2, §3, §4, §5, §6, §7, §8, §9

NCI-H522 = type: cell-based; conditions: NCI-H522 (Non-Small Cell Lung)
Method: as §1, §2, §3, §4, §5, §6, §7, §8, §9

DU-145 = type: cell-based; conditions: DU-145 (Prostate)
Method: as §1, §2, §3, §4, §5, §6, §7, §8, §9

HT29 = type: cell-based; conditions: HT29 (Colon)
Method: as §1, §2, §3, §4, §5, §6, §7, §8, §9

SNB-75 = type: cell-based; conditions: SNB-75 (CNS)
Method: as §1, §2, §3, §4, §5, §6, §7, §8, §9

SN12C = type: cell-based; conditions: SN12C (Renal)
Method: as §1, §2, §3, §4, §5, §6, §7, §8, §9

OVCAR-3 = type: cell-based, human; conditions: OVCAR-3 (Ovarian)
Method: as §1, §2, §3, §4, §5, §6, §7, §8, §9

UACC-62 = type: cell-based, human; conditions: UACC-62 (Melanoma)
Method: as §1, §2, §3, §4, §5, §6, §7, §8, §9

PC-3 = type: cell-based, human; conditions: PC-3 (Prostate)
Method: as §1, §2, §3, §4, §5, §6, §7, §8, §9

[1] = Homo sapiens, read-out: LC50 (the source's name)

SMILES: CC(C)(C)NC1CCN(c2cc(-c3ccc(Cl)cc3)nc3ccccc23)CC1.Cl.Cl [XII-4, 2-(4-chloro-phenyl)-4-(4-N-tert-butylamino-piperidin-1-yl)quinoline dihydrochloride]
- Growth percent at 10 μM (M14): ×××× (cell growth −60 < % > −80)
- Growth percent at 10 μM (SF-268): + (cell growth 60 > % < 80)
- Growth percent at 10 μM (MCF7): ++ (cell growth 40 > % < 60)
- Growth percent at 10 μM (LOX IMVI): ++++ (cell growth 0 > % < 20)
- Growth percent at 10 μM (OVCAR-5): ++ (cell growth 40 > % < 60)
- Growth percent at 10 μM (SK-MEL-28): ×××× (cell growth −60 < % > −80)
- Growth percent at 10 μM (BT-549): − (cell growth % > 80)
- Growth percent at 10 μM (RXF393; 10 μM): +++ (cell growth 20 > % < 40)
- Growth percent at 10 μM (UO-31): +++ (cell growth 20 > % < 40)
- Growth percent at 10 μM (NCI/ADR-RES): + (cell growth 60 > % < 80)
- Growth percent at 10 μM (NCI-H522): + (cell growth 60 > % < 80)
- Growth percent at 10 μM (DU-145): − (cell growth % > 80)
- Growth percent at 10 μM (HT29): × (cell growth 0 < % > −20)
- Growth percent at 10 μM (SNB-75): ++ (cell growth 40 > % < 60)
- Growth percent at 10 μM (SN12C): ++ (cell growth 40 > % < 60)
- Growth percent at 10 μM (OVCAR-3): − (cell growth % > 80)
- Growth percent at 10 μM (UACC-62): ××××× (cell growth % < −80)
- Growth percent at 10 μM (PC-3): +++ (cell growth 20 > % < 40)

SMILES: CCN(CC)C1CCN(C(C)c2cc(-c3ccccc3)nc3ccccc23)CC1.Cl.Cl (centres unmarked) [XIX-3, 2-phenyl-4-{1-[4-(N,N-diethylamino)piperidin-1-yl]-eth-1-yl}quinoline dihydrochloride]
- GI50 (M14; Homo sapiens): 2 µM
- CC50 (M14; [1]): 8 µM
- TGI (M14): 4 µM
- Growth percent at 10 μM (M14): ××× (cell growth −40 > % < −60)
- GI50 (SF-268; Homo sapiens): 10 µM
- CC50 (SF-268; [1]): 55 µM
- TGI (SF-268): 24 µM
- Growth percent at 10 μM (SF-268): + (cell growth 60 > % < 80)
- GI50 (MCF7; Homo sapiens): 8 µM
- LC50 (50% lethal concentration) (MCF7; Homo sapiens): 56 µM
- TGI (MCF7): 22 µM
- Growth percent at 10 μM (MCF7): ++ (cell growth 40 > % < 60)
- GI50 (LOX IMVI; Homo sapiens): 4 µM
- CC50 (LOX IMVI; [1]): 44 µM
- TGI (LOX IMVI): 15 µM
- Growth percent at 10 μM (LOX IMVI): ++ (cell growth 40 > % < 60)
- GI50 (OVCAR-5; Homo sapiens): 13 µM
- CC50 (OVCAR-5; [1]): 58 µM
- TGI (OVCAR-5): 28 µM
- Growth percent at 10 μM (OVCAR-5): + (cell growth 60 > % < 80)
- GI50 (SK-MEL-28; Homo sapiens): 2 µM
- CC50 (SK-MEL-28; [1]): 6 µM
- TGI (SK-MEL-28): 3 µM
- Growth percent at 10 μM (SK-MEL-28): ××× (cell growth −40 > % < −60)
- TGI (BT-549): 27 µM
- Growth percent at 10 μM (BT-549): + (cell growth 60 > % < 80)
- GI50 (BT-549; Homo sapiens): 13 µM
- CC50 (BT-549; [1]): 56 µM
- GI50 (RXF393; Homo sapiens, RXF 393): 4 µM
- CC50 (RXF393; Homo sapiens, RXF 393, read-out: LC50 (the source's name)): 17 µM
- TGI (RXF393): 17 µM
- GI50 (UO-31; Homo sapiens): 8 µM
- CC50 (UO-31; [1]): 22 µM
- TGI (UO-31): 22 µM
- Growth percent at 10 μM (UO-31): ++ (cell growth 40 > % < 60)
- GI50 (NCI/ADR-RES; Homo sapiens): 12 µM
- LC50 (concentration giving 50% net cell kill) (NCI/ADR-RES; Homo sapiens): 56 µM
- TGI (NCI/ADR-RES): 26 µM
- Growth percent at 10 μM (NCI/ADR-RES): + (cell growth 60 > % < 80)
- GI50 (NCI-H522; Homo sapiens): 15 µM
- CC50 (NCI-H522; [1]): 66 µM
- TGI (NCI-H522): 32 µM
- Growth percent at 10 μM (NCI-H522): +++ (cell growth 20 > % < 40)
- TGI (DU-145): 28 µM
- Growth percent at 10 μM (DU-145): − (cell growth % > 80)
- GI50 (DU-145; Homo sapiens): 14 µM
- CC50 (DU-145; [1]): 54 µM
- TGI (HT29): 7 µM
- Growth percent at 10 μM (HT29): ++++ (cell growth % < 20)
- GI50 (HT29; Homo sapiens, HT-29): 2 µM
- CC50 (HT29; Homo sapiens, HT-29, read-out: LC50 (the source's name)): 32 µM
- GI50 (SNB-75; Homo sapiens): 12 µM
- CC50 (SNB-75; [1]): 55 µM
- TGI (SNB-75): 26 µM
- Growth percent at 10 μM (SNB-75): +++ (cell growth 20 > % < 40)
- GI50 (SN12C; Homo sapiens): 12 µM
- LC50 (concentration giving 50% net cell kill) (SN12C; Homo sapiens): 26 µM
- TGI (SN12C): 26 µM
- Growth percent at 10 μM (SN12C): + (cell growth 60 > % < 80)
- GI50 (OVCAR-3; Homo sapiens): 14 µM
- CC50 (OVCAR-3; [1]): 55 µM
- TGI (OVCAR-3): 28 µM
- Growth percent at 10 μM (OVCAR-3): + (cell growth 60 > % < 80)
- Growth percent at 10 μM (UACC-62): ×××× (cell growth −60 > % < −80)
- Growth percent at 10 μM (PC-3): + (cell growth 60 > % < 80)
